Entries after “also recorded” stand apart in the source; their conditions may differ.

What all share (type): physicochemical
Data set [1] is described as follows: Solubility assessment at room temperature by solvent aliquot addition and visual inspection. The note with it: thermodynamic from solid. On the procedure: (§1) The solubility of ACH-0142684 sodium salt was determined at room temperature using the following procedure. The input material (˜10 mg) was weighed into each of 12 vials, followed by addition of a solvent in multiple aliquots between 50μL to 10-mL at room temperature. Samples were visually inspected for complete dissolution after each solvent addition. The solubility of crystalline ACH-0142684 sodium salt is summarized in TABLE 1, which provides a solubility assessment of amorphous API in 12 solvents. The solubility of API-0142684 in water after temperature cycling between 40° C. and 5° C. for 2 days is ˜50 mg/ml.

The nature of data set [2]: Solubility in water after temperature cycling between 40° C. and 5° C. As to conditions: thermodynamic from solid, cycling between 40° C. and 5° C. for 2 days. On the procedure: as §1
A short description of data set [3]: Solubility in screen solvents derived from loading in solvent and dissolution. The note with it: organic solvent or mixture, thermodynamic from solid. The source says: They were selected based on a diverse range of properties including dielectric constants, boiling points, and H-bonding that are important to crystallization and crystal-form discovery. The values in TABLE 2 are derived from ACH-0142684 loading in solvent and dissolution. The symbol † indicates the solubility value is found in TABLE 1.

Data set [4] is described as follows: Competitive ripening study between Polymorphs A and G. The note with it: slurry in 2-propanol, room temperature, sample isolated after 48 hours. On the procedure:
A competitive ripening study was conducted between Polymorphs A and G at room temperature to determine their relative stabilities. Approximately 5 mg of Polymorphs A and G were added to a 2-mL HPLC vial containing 0.5 mL of 2-propanol. The suspension was stirred at room temperature for two days. Aliquots of the slurry were filtered after 20 and 48 hours. The isolated solids were analyzed by PXRD to determine any form conversion.

Data set [5] in a line: Crystallization screening (temperature cycling, cooling, evaporation, vapor diffusion), form stability. The note with it: 48 solvents/mixtures. On the procedure:
Crystallization experiments were conducted in 48 solvents and aqueous mixtures using the following three crystallization modes:
Temperature-cycled ripening of API slurries between 5-40° C. for 48 hours;
Cooling of saturated solutions prepared at RT to 5° C. (24 hours);
Slow evaporation of saturated solutions at RT.In addition, 10 vapor diffusion experiments were also conducted (Table 4) at RT. These solvent systems were selected based on API solubility, and the miscibility and boiling points of solvents and anti-solvents.
All solid outputs from the screen were isolated and analyzed by FT-Raman spectroscopy and/or PXRD. The samples were then sorted into polymorphs based on Raman spectral match. Representative samples from each of the polymorphs were further analyzed by additional techniques (PXRD, DSC, TGA-IR, PLM, etc.) as appropriate and as sample quantity permitted.
Characterization data and more detailed discussion of the different crystal forms are summarized in the following sections. In TABLES 3 and 4, A, B, C, D, or E, etc. indicates the respective crystalline polymorph obtained. “Amorphous” indicates an amorphous solid was obtained, (-) indicates the experiment was not performed, and a blank space indicates no solid was obtained. The screening study led to one hydrated form (Polymorph A) and multiple solvated forms (Polymorph s B-E). […]

Data set [6] in a line: Vacuum oven drying and re-analysis by PXRD for form change. On the procedure:
PXRD diffractograms were acquired using either a Bruker D8 Discovery diffractometer with a HI-STAR GADDS detector or PANalytical X′Pert Pro diffractometer on Si zero-background wafers. All diffractograms were collected using Cu Kα (45 kV/40 mA) radiation and a step size of 0.02° 2θ unless noted otherwise.
A sample of Polymorph A was dried in a vacuum oven at 55° C. overnight with a small flow of nitrogen. FIG. 1 is a graph showing the results of X-ray powder diffraction analysis of pre-dried (lower trace) and post-dried (upper trace) Polymorph A sample. FIG. 2 is a graph showing the results of differential scanning calorimetry overlay of a pre-dried (lower trace) and post-dried (upper trace) Polymorph A sample. FIG. 3 is a graph showing the results of thermogravimetric analysis of the Form A polymorph.
A small amount of Polymorph B was dried in a vacuum oven at 50° C. for 16 hours and the sample was re-analyzed by PXRD to observe if there were any form changes.

The term solubility denotes how much of the substance goes into solution per volume. Consider `COc1ccc2c(O[C@@H]3C[C@H]4C(=O)N[C@]5(C(=O)[N-]S(=O)(=O)C6CC6)C[C@H]5/C=C\CCCCC[C@H](CC(=O)N5CCCC(F)(F)C5)C(=O)N4C3)cc(-c3nc(C(C)C)cs3)nc2c1C.[Na+]` [ACH-0142684 sodium salt], for which the solubility is 1 to 1.2 mg/mL in data set [1] (organic solvent or mixture, ACN); 49 to 98 mg/mL in data set [1] (organic solvent or mixture, DCM); 97 to 129 mg/mL in data set [1] (organic solvent or mixture, DMSO); < 1.02 mg/mL in data set [1] (organic solvent or mixture, EtOAc); 1.1 to 1.3 mg/mL in data set [1] (organic solvent or mixture, IPA); < 0.93 mg/mL in data set [1] (organic solvent or mixture, MTBE). Besides, the solubility in data set [1] (organic solvent or mixture, MeOH) is 92 to 123 mg/mL; in data set [1] (organic solvent or mixture, TFE) it was 100 to 133 mg/mL; in data set [1] (organic solvent or mixture, THF), 9.2 to 18.4 mg/mL; in data set [1] (organic solvent or mixture, Toluene), < 1.04 mg/mL; in data set [1] (organic solvent or mixture, acetone) it was 5.7 to 14 mg/mL; in data set [1] (Water), < 0.99 mg/mL. Moreover, the solubility at 2 days in data set [2] was ~50 mg/mL.
For `COc1ccc2c(O[C@@H]3C[C@H]4C(=O)N[C@]5(C(=O)NS(=O)(=O)C6CC6)C[C@H]5/C=C\CCCCC[C@H](CC(=O)N5CCCC(F)(F)C5)C(=O)N4C3)cc(-c3nc(C(C)C)cs3)nc2c1C` [ACH-0142684], the solubility in data set [3] (1,4-Dioxane) is < 50 mg/mL; in data set [3] (1-Butanol), < 50 mg/mL; in data set [3] (1-Methoxy-2-propanol), > 80 mg/mL; in data set [3] (1-propanol), < 50 mg/mL; in data set [3] (2-Butanone), < 50 mg/mL; in data set [3] (2-Methoxyethyl ether), < 90 mg/mL. The solubility was > 93 mg/mL in data set [3] (2-methoxyethanol); < 95 mg/mL in data set [3] (2-propanol with 20 vol % water, 2-propanol: 20 vol % Water); < 50 mg/mL in data set [3] (2-propanol: 5 vol % Water); < 50 mg/mL in data set [3] (2-propanol: 10 vol %); < 50 mg/mL in data set [3] (4-Methyl-2-pentanone); < 50 mg/mL in data set [3] (Acetone: 5 vol % Water). In addition, the solubility in data set [3] (Acetone: 10 vol % Water) was < 99 mg/mL; in data set [3] (Acetonitrile: 5 vol % Water), < 50 mg/mL; in data set [3] (Acetonitrile: 10 vol %) it was < 50 mg/mL; in data set [3] (Chlorobenzene) it was < 50 mg/mL; in data set [3] (Chloroform) it was > 153 mg/mL; in data set [3] (Cyclohexane), < 50 mg/mL. For the same compound, the solubility in data set [3] (Cyclohexanone) is > 87 mg/mL; in data set [3] (DMF) it was > 93 mg/mL; in data set [3] (Dimethyl Carbonate), < 50 mg/mL; in data set [3] (Dioxane: 10 vol % Water), > 93 mg/mL; in data set [3] (EtOAc:pentane (1:1)), < 50 mg/mL; in data set [3] (EtOAc:pentane (1:4)), < 50 mg/mL. Also, the solubility in data set [3] (EtOAc:pentane (1:10)) is < 50 mg/mL; in data set [3] (EtOH) it was < 72 mg/mL; in data set [3] (Isopropyl acetate) it was < 50 mg/mL; in data set [3] (Isopropyl ether), < 50 mg/mL; in data set [3] (MeOAc) it was < 50 mg/mL; in data set [3] (Methanol: 5 vol % Water), > 177 mg/mL. The solubility is > 85 mg/mL in data set [3] (Methanol: 10 vol % Water); < 50 mg/mL in data set [3] (Pentane); > 85 mg/mL in data set [3] (THF: 5 vol % Water); > 107 mg/mL in data set [3] (THF: 10 vol % Water); < 96 mg/mL in data set [3] (acetone with 20 vol % water, Acetone: 20 vol % Water); < 50 mg/mL in data set [3] (nitromethane).
For the compound `COc1ccc2c(O[C@@H]3C[C@H]4C(=O)N[C@]5(C(=O)[N-]S(=O)(=O)C6CC6)C[C@H]5/C=C\CCCCC[C@H](CC(=O)N5CCCC(F)(F)C5)C(=O)N4C3)cc(-c3nc(C(C)C)cs3)nc2c1C.[Na+]` [Polymorph A], the “Relative stability of Polymorphs A and G (PXRD of isolated solids)” value in data set [4] is on record as “the more stable form at room temperature”. Besides, the “Form stability indicated by crystallization screen outcome” value in data set [5] is “the most stable form at the crystallization conditions studied; also recorded: stable form at/around room temperature”. The “Form stability on drying (PXRD of dried sample)” value in data set [6] (vacuum oven at 55° C. overnight, small flow of nitrogen) is given as “does not show any change in form or crystallinity”.
With `COc1ccc2c(O[C@@H]3C[C@H]4C(=O)N[C@]5(C(=O)[N-]S(=O)(=O)C6CC6)C[C@H]5/C=C\CCCCC[C@H](CC(=O)N5CCCC(F)(F)C5)C(=O)N4C3)cc(-c3nc(C(C)C)cs3)nc2c1C.[Na+]` [Polymorph B], the “Form stability on drying (PXRD of dried sample)” value in data set [6] (vacuum oven at 50° C. for 16 hours) is reported as “does not show any change in form but the peaks appear to be broader”.

The values are drawn from patent US9085607B2, “ACH-0142684 sodium salt polymorph, composition including the same, and method of manufacture thereof” (Achillion Pharmaceuticals Inc., priority 2013, dated 2015).
